Key:
[1] = biological target: Phosphatidylinositol 4,5-bisphosphate 3-kinase catalytic subunit alpha isoform [H1047R] (Homo sapiens, UniProt P42336, H1047R)
[2] = biological target: Phosphatidylinositol 4,5-bisphosphate 3-kinase catalytic subunit alpha isoform (Homo sapiens, UniProt P42336); experiment: ADP-Glo Kinase Assay
Phosphatidylinositol 4,5-bisphosphate 3-kinase catalytic subunit alpha isoform, sequence (P42336 whole entry, canonical isoform): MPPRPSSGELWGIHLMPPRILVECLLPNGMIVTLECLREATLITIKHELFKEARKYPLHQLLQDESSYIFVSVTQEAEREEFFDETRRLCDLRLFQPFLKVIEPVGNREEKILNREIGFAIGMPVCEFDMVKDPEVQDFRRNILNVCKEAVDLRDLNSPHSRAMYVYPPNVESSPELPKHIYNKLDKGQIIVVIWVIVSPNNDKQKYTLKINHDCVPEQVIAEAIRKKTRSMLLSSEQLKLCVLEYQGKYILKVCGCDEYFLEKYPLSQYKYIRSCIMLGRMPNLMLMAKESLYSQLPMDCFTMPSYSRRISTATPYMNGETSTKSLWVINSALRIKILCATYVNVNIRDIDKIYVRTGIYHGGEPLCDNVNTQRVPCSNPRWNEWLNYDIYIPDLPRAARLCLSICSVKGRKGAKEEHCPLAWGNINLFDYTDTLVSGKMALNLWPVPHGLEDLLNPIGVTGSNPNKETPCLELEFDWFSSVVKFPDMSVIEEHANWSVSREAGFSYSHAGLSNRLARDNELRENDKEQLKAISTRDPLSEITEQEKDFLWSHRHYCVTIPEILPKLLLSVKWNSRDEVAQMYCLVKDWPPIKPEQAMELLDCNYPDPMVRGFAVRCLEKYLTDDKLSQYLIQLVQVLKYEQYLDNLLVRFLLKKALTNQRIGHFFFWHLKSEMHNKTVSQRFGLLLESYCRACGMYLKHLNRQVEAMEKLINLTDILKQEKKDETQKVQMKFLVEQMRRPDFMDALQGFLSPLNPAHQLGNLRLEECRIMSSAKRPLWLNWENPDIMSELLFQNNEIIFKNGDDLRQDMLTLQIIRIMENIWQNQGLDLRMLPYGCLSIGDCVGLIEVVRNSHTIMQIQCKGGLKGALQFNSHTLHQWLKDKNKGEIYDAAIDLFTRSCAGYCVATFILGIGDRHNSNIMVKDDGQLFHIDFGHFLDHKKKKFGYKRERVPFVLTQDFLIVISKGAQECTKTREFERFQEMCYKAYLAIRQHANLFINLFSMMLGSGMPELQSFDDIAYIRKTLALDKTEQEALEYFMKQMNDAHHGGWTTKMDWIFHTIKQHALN

Phosphatidylinositol 4,5-bisphosphate 3-kinase catalytic subunit alpha isoform [H1047R], sequence (P42336 whole entry H1047R, canonical isoform): as the sequence (P42336 whole entry, canonical isoform) above, with H1047R counted along it

IC50 [1]	IC50 [2]	SMILES
< 0.25 µM	> 10 µM	Cn1nc2ccc(NC(=O)c3cc(F)cc(C(F)(F)F)c3)c3c2c1C(=O)NC3c1cc(Cl)ccc1Cl (stereo unspecified) [US20240158408, Compound YL104]
< 0.25 µM	> 10 µM	Cn1nc2c(-c3ccc4ncnn4c3C#N)cc(NC(=O)c3cc(F)cc(C(F)(F)F)c3)c3c2c1C(=O)NC3c1cc(F)ccc1Cl (stereo unspecified) [US20240158408, Compound YL106]
< 0.25 µM	> 10 µM	Cn1nc2c(-c3ccc4ncnn4c3C#N)cc(NC(=O)c3cc(F)cc(C(F)(F)F)c3)c3c2c1C(=O)NC3c1cc(Cl)ccc1Cl (stereo unspecified) [US20240158408, Compound YL107]

From BindingDB's records for patent US20240158408 (280 Bio, 2024)
